Experimental data from US9834773B2, “Methods and means for metabolic engineering and improved product formation by micro-organisms” (Universiteit Leiden, priority 2006, dated 2017).

Legend:
[1] = system: S. coelicolor M145 and BAP29 mycelia; assay: Sugar uptake assay with N-[14C]acetyl-D-glucosamine into mycelia; type: cell-based, Streptomyces coelicolor; settings: parent M145, cultures grown in glycerol and inducer (GlcNAc); 20 μM N-[14C]acetyl-D-glucosamine
Text: FIG. 8. DasR represses genes the N-acetylglucosamine regulon (A) Effect of deletion of dasR on the uptake of GlcNAc. Left, uptake in glycerol-grown cultures; right, uptake in cultures grown in glycerol and inducer (GlcNAc); note that expression was constitutive in BAP29. (B) Western blot analysis of HPr (top) and IIA^Crr (bottom), showing that inducibility of these PTS proteins is controlled by DasR. (C) Transcriptional analysis of crr (for IIA^Crr), nagE2 (for IIC^GlcNAc), malX2 (for IIB^GlcNAc), nagB and chiF by semi-quantitative RT-PCR. Samples were collected before and 15, 30 and 60 min after the addition of GlcNAc to exponentially growing minimal medium glycerol cultures. 16S rRNA was used as control.
Uptake assays with 20 μM N-[^14C]acetyl-D-glucosamine (6.2 mCi mmol^−1) into mycelia were performed as described (Nothaft et al., 2003).
Since many of the predicted DasR targets were involved in the fate of carbon sources (Table 2), we analyzed the effects of the dasR mutation on sugar import. […] This correlated to constitutive protein levels of the universal PTS phosphotransferases HPr and IIA^Crr (FIG. 8B), and was supported by RT-PCR of the respective genes (malX2, nagE2, crr-ptsI and ptsH; FIG. 8C) that encode the PTS permease complex (IIB^GlcNAc, IIC^GlcNAc, IIA^Crr, EI, HPr).

[2] = system: S. coelicolor M145, M510, M511, M512; assay: Pigmented antibiotic (actinorhodin, undecylprodigiosin) production on MM agar plates with or without GlcNAc; type: cell-based, Streptomyces coelicolor
Text: FIG. 2. Effect of dasR on development and antibiotic production. (A) Antibiotic production by S. coelicolor M145 and its dasR mutant BAP29 on minimal medium agar plates with or without GlcNAc. […] The latter is in line with our discovery that (i) ActV4A is enhanced in the mutant (FIG. 4) and (ii) the identification of a DasR-bound dre upstream of the pathway-specific activator genes actII-ORF4 for actinorhodin production and redZ for undecylprodigiosin production. Unexpectedly, the dasR mutant grown on minimal media with GlcNAc presents the expression of a yet unchartacterized green pigment. (B) Overexpression of DasR causes developmental arrest. Left, S. coelicolor M145 with control plasmid pUWL-KS; right, the same strain with a plasmid over-expressing dasR (grown for 4 days at 30° C.); note the almost complete lack of aerial hyphae (white) in the strain over-expressing DasR; (C) Scanning electron micrographs of aerial hyphae and spores of S. coelicolor M145 and the dasR mutant BAP29. […] Bars represent 5 μm. (D) Transmission electron micrographs of spores of M145 (left) and BAP29 (right). Arrows indicate the voids between the cell wall and the membrane. FD, full detachment; ID, incomplete detachment.
E. coli DH5α, and BL21(DE3) were used for subcloning and DasR overexpression experiments. S. coelicolor M145, M510 (M145 ΔredD), M511 (M145 ΔactII-IV) and M512 (M145 ΔactII-IV ΔredD) (Floriano and Bibb, 1996) and Streptomzyces lividans 1326 were all obtained from the John Innes Centre strain collection, Streptomyces avermitilis NRRL 8165 (MA-4680), Streptonzyces hygroscopicus ATCC27438, Streptomyces limosus ATCC 19778, Streptomyces rinzosus ATCC 10970, Streptonzyces roseosporus ATCC 31568 and Streptonzyces venezuelae ATCC15439 were obtained from the ATCC strain collection and Streptomyces acrinzycini DSM 40540, Streptomyces cinnanzonensis DSM 40467, Streptomyces clavuligerus NRRL 3585, Streptomyces collinus DSM 40733 and Streptomyces griseus NRRL B2682 from the DSMZ strain collection. The dasR mutant BAP29 (ΔdasR::accC4) was created by replacing the coding region of the gene by the apramycin resistance gene cassette, using plasmid pWHM3, according to a routine procedure (Nothaft et al., 2003). The same strategy was used to create the knock-out mutants for ptsH (BAP1), crr (BAP2), ptsI (BAP3), nagE1 (BAP4), nagE2 (BAP5), and nagE1/E2 (BAP6). BAP1-3 were published previously (Nothaft et al., 2003). S. coelicolor strains were grown at 28° C. using tryptic soy broth without dextrose as complex medium (TSB, Difco) or minimal medium (van Wezel et al., 2005). E. coli cultures were grown in Luria-Bertani broth (LB) at 37° C. Phenotypic characterization of mutants was done on minimal medium agar plates with various carbon sources as indicated in the text (Kieser et al., 2000). Quantification of Act and Red was performed as described previously (Martinez-Costa et al., 1996).
Arguing from the regulatory pathway deduced from the newly extended characterization of the DasR regulon (FIG. 22), we anticipated that DasR-dependent transport and phosphorylation of GlcNAc via the PTS could be a decisive signal to trigger actinorhodin and undecylprodigiosin biosynthesis in S. coelicolor. This hypothesis was tested by plating S. coelicolor M510 (ΔredD), M511 (ΔactII-ORF4) and M512 (ΔredD, ΔactII-ORF4) on MM agar plates with or without GlcNAc. […]

CC(=O)N[C@H]1C(O)O[C@H](CO)[C@@H](O)[C@@H]1O (stereo partly drawn) [N-acetylglucosamine]
PTS-mediated uptake of GlcNAc [1]: induced | induction of the pigmented antibiotics actinorhodin and undecylprodigiosin ([2]; S. coelicolor M145, minimal medium agar plates with or without GlcNAc): required for induction | production of Act (actinorhodin) ([2]; S. coelicolor M510 (ΔredD), MM agar, GlcNAc 10 mM, five days): induced | production of Red (undecylprodigiosin) ([2]; S. coelicolor M511 (ΔactII-ORF4), MM agar, GlcNAc 10 mM, five days): induced | pigmented antibiotic production ([2]; S. coelicolor M512 (ΔredD, ΔactII-ORF4), MM agar, GlcNAc 10 mM): No pigmented antibiotic was observed | concentration at which the 'GlcNAc effect' was observed ([2]; effect of GlcNAc on antibiotic production and development): > 5 mM
